Laboratory results: US6608082B1, “Treatment of erectile dysfunction using isoquinoline compound melanocortin receptor ligands” (Lion Bioscience AG, priority 1998, dated 2003)
Like-named read-outs stand apart in the source and are kept apart here. Each block holds one compound with its values, some of them ahead of it.

What was measured:
MCR-4 = target: T1, MCR-4 (Homo sapiens, UniProt P32245); experiment: Melanocortin receptor binding assay, competition with 125I-HP 467, HEK 293 cells expressing hMCR-4; details: read-out: MC-4 IC50
T1 construct: expressed in transfected cells; host or cells: HEK 293
T1 sequence (P32245 whole entry): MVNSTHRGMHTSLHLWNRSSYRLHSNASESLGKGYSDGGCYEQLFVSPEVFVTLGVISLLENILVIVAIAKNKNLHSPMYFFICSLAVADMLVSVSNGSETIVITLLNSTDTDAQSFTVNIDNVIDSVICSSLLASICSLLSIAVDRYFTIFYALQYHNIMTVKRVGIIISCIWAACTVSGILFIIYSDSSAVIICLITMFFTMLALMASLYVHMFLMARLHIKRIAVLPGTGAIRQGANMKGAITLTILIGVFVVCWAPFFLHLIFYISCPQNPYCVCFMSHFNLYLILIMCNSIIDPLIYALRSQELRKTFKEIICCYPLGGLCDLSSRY
Summary of the method: (§1)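 Test compounds compete on intact HEK 293 cells carrying hMCR-1 (2×10^4 per tube) or hMCR-4 (4×10^3 per tube), suspended in PBS, 10% calf serum, 1 mM CaCl2.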

MCR-1 = target: T2, MCR-1 (Homo sapiens, UniProt Q01726); experiment: Melanocortin receptor binding assay, competition with 125I-HP 467, HEK 293 cells expressing hMCR-1; details: read-out: MC-1 IC50
T2 construct: expressed in transfected cells; host or cells: HEK 293
T2 sequence (Q01726 whole entry): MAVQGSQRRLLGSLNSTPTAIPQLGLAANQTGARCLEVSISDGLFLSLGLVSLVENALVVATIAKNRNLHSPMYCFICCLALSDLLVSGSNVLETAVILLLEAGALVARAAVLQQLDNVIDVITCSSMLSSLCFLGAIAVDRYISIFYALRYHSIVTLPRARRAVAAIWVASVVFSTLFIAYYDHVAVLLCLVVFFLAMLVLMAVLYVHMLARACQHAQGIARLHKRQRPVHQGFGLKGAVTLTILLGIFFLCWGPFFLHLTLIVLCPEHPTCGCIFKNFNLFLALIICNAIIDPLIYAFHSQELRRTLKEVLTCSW
Summary of the method: as §1

[1] = inhibition of binding of 125I-HP 467, HEK 293 cells expressing MCR-4, TRG 2414 library
[2] = inhibition of binding of 125I-HP 467, HEK 293 cells expressing MCR-1, TRG 2414 library
[3] = inhibition of binding of 125I-HP 467, HEK 293 cells expressing MCR-4
[4] = inhibition of binding of 125I-HP 467, HEK 293 cells expressing MCR-1
[5] = TRG 2408 and TRG 2409 libraries, inhibition of 125I-HP 467 binding
[6] = competition with 125I-HP 467, HEK 293 cells expressing MCR-4
[7] = competition with 125I-HP 467, HEK 293 cells expressing MCR-1
[8] = TRG 2406 and TRG 2407 libraries, inhibition of binding of 125I-HP 467

- IC50 (MCR-4; [1]): 7.34 µM
- IC50 (MCR-1; [2]): 1.77 µM
SMILES: CCCOc1ccc(C2C(CNCCc3ccccc3OC)c3ccccc3CN2CCCCC(CN)NCCc2ccccc2)cc1 (stereo not shown) [TRG 2414-170]

- IC50 (MCR-4; [1]): 5.67 µM
- IC50 (MCR-1; [2]): 2.17 µM
SMILES: NCC(CCCCN1Cc2ccccc2C(CNC2CCCCCC2)C1c1ccc(Cl)cc1Cl)NCc1ccccc1 (stereo not shown) [TRG 2414-35]

SMILES: CCNc1ccc(C2C(CN)c3ccccc3CN2CCCC(CN)NCCCCN(CC)CC)cc1 (stereo not shown) [TRG 2419-7]
- IC50 (MCR-4; [3]): 10.1 µM
- IC50 (MCR-1; [4]): 0.141 µM

- IC50 (MCR-4; [5]): 6.3 µM
- IC50 (MCR-1; [5]): 0.76 µM
SMILES: NCCNC(CN)CCCCN1Cc2ccccc2C(CNC2CCCCC2)C1c1ccc(Cl)cc1Cl (stereo not shown) [TRG 2408-15]

- IC50 (MCR-4; [1]): 5.34 µM
- IC50 (MCR-1; [2]): 0.518 µM
SMILES: CCCOc1ccc(C2C(CNCCc3ccccc3OC)c3ccccc3CN2CCCCC(N)CN)cc1 (stereo not shown) [TRG 2414-169]

- IC50 (MCR-4; [6]): 1.56 µM
- IC50 (MCR-1; [7]): 0.32 µM
SMILES: CCNc1ccc(C2C(CNCCc3ccccc3)c3ccccc3CN2CCCC[C@@H](CN)NCCc2ccc(OC)cc2)cc1 (stereo partly shown) [TRG 2411-42]

- IC50 (MCR-4; [1]): 13.1 µM
- IC50 (MCR-1; [2]): 7.74 µM
SMILES: NCC(CCCCN1Cc2ccccc2C(CNCc2ccccc2)C1c1cccc(Oc2ccccc2)c1)NCc1ccccc1 (stereo not shown) [TRG 2414-111]

- IC50 (MCR-4; [8]): 9.22 µM
- IC50 (MCR-1; [8]): 10.1 µM
SMILES: CNC(CN)CCCCN1Cc2ccccc2C(CNCc2cccc(C(F)(F)F)c2)C1c1ccc(Cl)cc1Cl (stereo not shown) [TRG 2407-17]

- IC50 (MCR-4; [6]): 0.83 µM
- IC50 (MCR-1; [7]): 0.23 µM
SMILES: CCCCNc1ccc(C2C(CNC3CCCCC3)c3ccccc3CN2CCCCC(CN)NCC)cc1 (mixture of isomers) [TRG 2411-87]

- IC50 (MCR-4; [1]): 4.37 µM
- IC50 (MCR-1; [2]): 2.12 µM
SMILES: NCC(CCCCN1Cc2ccccc2C(CNC2CCCCC2)C1c1ccc(Cl)cc1Cl)NCc1ccccc1 (mixture of isomers) [TRG 2414-39]

- IC50 (MCR-4; [6]): 1.59 µM
- IC50 (MCR-1; [7]): 1.46 µM
SMILES: CCCCNC(CN)CCCN1Cc2ccccc2C(CNC2CCCCC2)C1c1ccc(-c2ccccc2)cc1 (stereo not shown) [TRG 2411-133]

- IC50 (MCR-4; [1]): 5.26 µM
- IC50 (MCR-1; [2]): 1.21 µM
SMILES: COc1cccc(CNCC2c3ccccc3CN(CCCCC(N)CN)C2c2ccc(Oc3ccccc3)cc2)c1 (stereo not shown) [TRG 2414-137]

- IC50 (MCR-4; [1]): 44.4 µM
- IC50 (MCR-1; [2]): 21.8 µM
SMILES: CCCOc1ccc(C2C(CNCc3ccccc3OCC)c3ccccc3CN2CCCCC(CN)NCC(C)c2ccc(CC(C)C)cc2)cc1 (stereo not shown) [TRG 2414-168]

- IC50 (MCR-4; [8]): 5.85 µM
- IC50 (MCR-1; [8]): 3.79 µM
SMILES: CNC(CN)CCCCN1Cc2ccccc2C(CNCc2ccccc2O)C1c1cccn1C (stereo not shown) [TRG 2406-1]

- IC50 (MCR-4; [3]): 18.4 µM
- IC50 (MCR-1; [4]): 0.199 µM
SMILES: CCNc1ccc(C2C(CN)c3ccccc3CN2CCCC(CN)NCCCCN)cc1 (stereo not shown) [TRG 2419-11]

SMILES: CCOc1ccc(CCNCC2c3ccccc3CN(CCCCC(CN)NCc3ccccc3)C2c2cccc(C(F)(F)F)c2)cc1 (stereo not shown) [TRG 2421-45]
- IC50 (MCR-4; [3]): 2.73 µM
- IC50 (MCR-1; [4]): 0.98 µM

- IC50 (MCR-4; [1]): 13.4 µM
- IC50 (MCR-1; [2]): 4.63 µM
SMILES: COc1ccccc1CCNCC1c2ccccc2CN(CCCCC(CN)NCCc2ccccc2)C1c1ccc(Oc2ccccc2)cc1 (stereo not shown) [TRG 2414-130]

- IC50 (MCR-4; [1]): 1.63 µM
- IC50 (MCR-1; [2]): 3.08 µM
SMILES: COc1cccc(CNCC2c3ccccc3CN(CCCCC(N)CN)C2c2ccc(Cl)cc2Cl)c1 (stereo not shown) [TRG 2414-17]

- IC50 (MCR-4; [6]): 1.79 µM
- IC50 (MCR-1; [7]): 0.13 µM
SMILES: CCNc1ccc(C2C(CNC3CCCCC3)c3ccccc3CN2CCCCC(CN)NCc2ccccc2)cc1 (stereo not shown) [TRG 2411-54]

- IC50 (MCR-4; [5]): 25 µM
- IC50 (MCR-1; [5]): 2.67 µM
SMILES: CCNc1ccc(C2C(CNC3CCCCC3)c3ccccc3CN2CCCC(CN)NCCNC)cc1 (stereo not shown) [TRG 2408-64]

- IC50 (MCR-4; [1]): 7.52 µM
- IC50 (MCR-1; [2]): 4.85 µM
SMILES: NCC(CCCCN1Cc2ccccc2C(CNC2CCCCCC2)C1c1ccc(Oc2ccccc2)cc1)NCCc1ccccc1 (stereo not shown) [TRG 2414-154]

- IC50 (MCR-4; TRG 2414 library, inhibition of binding of 125I-HP 467, HEK 293 cells expressing MCR-4): 5.09 µM
- IC50 (MCR-1; TRG 2414 library, inhibition of binding of 125I-HP 467, HEK 293 cells expressing MCR-1): 3.86 µM
SMILES: CCCOc1ccc(C2C(CNC3CCCCCC3)c3ccccc3CN2CCCCC(CN)NCCc2ccccc2)cc1 (stereo not shown) [Cmpd 194]

- IC50 (MCR-4; [1]): 3.06 µM
- IC50 (MCR-1; [2]): 9.81 µM
SMILES: NCC(CCCCN1Cc2ccccc2C(CNCCc2cccc(Cl)c2)C1c1cc(C(F)(F)F)cc(C(F)(F)F)c1)NCCc1ccccc1 (stereo not shown) [TRG 2414-54]

- IC50 (MCR-4; [6]): 0.63 µM
- IC50 (MCR-1; [7]): 0.1 µM
SMILES: CCCCNc1ccc(C2C(CN)c3ccccc3CN2CCCC(CN)NCCc2ccc(OC)cc2)cc1 (stereo not shown) [TRG 2409-223]

- IC50 (MCR-4; [6]): 1.42 µM
- IC50 (MCR-1; [7]): 0.3 µM
SMILES: NCC(CCCCN1Cc2ccccc2C(CN)C1c1ccc(-c2ccccc2)cc1)NCCO (stereo not shown) [TRG 2411-29]

SMILES: Cc1ccc(CNC(CN)CCCCN2Cc3ccccc3C(CNCCc3ccc(Cl)cc3)C2c2cc(C(F)(F)F)cc(C(F)(F)F)c2)cc1 (stereo not shown) [TRG 2421-32]
- IC50 (MCR-4; [3]): 4.15 µM
- IC50 (MCR-1; [4]): 5.77 µM
